Data taken from the supplement of paper PMC10307832.

Assays:
Assay in all cases: relative viability (nuclei count vs DMSO), 5 days (fraction); higher = more cells survive
Tosedostat + Palbociclib = compound: CC(C)C[C@@H](C(=O)N[C@H](C(=O)OC1CCCC1)c1ccccc1)[C@H](O)C(=O)NO [Tosedostat] + CC(=O)c1c(C)c2cnc(Nc3ccc(N4CCNCC4)cn3)nc2n(C2CCCC2)c1=O [Palbociclib] (partner 0.5 µM)
In short: (§1)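 Values are medians from duplicate plates. Each reflects relative viability, defined as the nuclei count of treated wells over that of vehicle wells. Lung cancer cell lines in 1536-well plates were pin-tool dosed one day after seeding with one drug alone or with a fixed anchor-drug dose plus five library-drug doses (not always all listed) in √10 steps, then fixed, stained and imaged at 4× after 5 days.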

Tosedostat + Luminespib = compound: CC(C)C[C@@H](C(=O)N[C@H](C(=O)OC1CCCC1)c1ccccc1)[C@H](O)C(=O)NO [Tosedostat] + CCNC(=O)c1noc(-c2cc(C(C)C)c(O)cc2O)c1-c1ccc(CN2CCOCC2)cc1 [Luminespib] (partner 0.01 µM)
In short: as §1

Tosedostat + AZD7762 = compound: CC(C)C[C@@H](C(=O)N[C@H](C(=O)OC1CCCC1)c1ccccc1)[C@H](O)C(=O)NO [Tosedostat] + NC(=O)Nc1cc(-c2cccc(F)c2)sc1C(=O)N[C@H]1CCCNC1 [AZD7762] (partner 0.2 µM)
In short: as §1

[1] = compound: CC1=NN=C(O1)C2=NN=C(C=C2)N3CCC(CC3)OC4=C(C=CC(=C4)F)Cl + CC(=O)c1c(C)c2cnc(Nc3ccc(N4CCNCC4)cn3)nc2n(C2CCCC2)c1=O [Palbociclib] (partner 0.5 µM)
In short: as §1

Cell Line	relative viability (Tosedostat + Palbociclib; first compound 0.02 µM)	relative viability (Tosedostat + Palbociclib; first compound 0.06325 µM)	relative viability (Tosedostat + Palbociclib; first compound 0.2 µM)	relative viability (Tosedostat + Palbociclib; first compound 0.6325 µM)	relative viability (Tosedostat + Palbociclib; first compound 2 µM)	relative viability (Tosedostat + Luminespib; first compound 0.02 µM)	relative viability (Tosedostat + Luminespib; first compound 0.06325 µM)	relative viability (Tosedostat + Luminespib; first compound 0.2 µM)	relative viability (Tosedostat + Luminespib; first compound 0.6325 µM)	relative viability (Tosedostat + Luminespib; first compound 2 µM)	relative viability (Tosedostat + AZD7762; first compound 0.02 µM)	relative viability (Tosedostat + AZD7762; first compound 0.06325 µM)	relative viability (Tosedostat + AZD7762; first compound 0.2 µM)	relative viability (Tosedostat + AZD7762; first compound 0.6325 µM)	relative viability (Tosedostat + AZD7762; first compound 2 µM)	relative viability ([1]; first compound 0.253 µM)	relative viability ([1]; first compound 0.8 µM)	relative viability ([1]; first compound 2.53 µM)	relative viability ([1]; first compound 8 µM)
HCC-44	1.05	0.982	1.01	0.983	0.928	1.29	0.987	0.985	0.957	0.834	1.08	1	1.03	1.06	0.965	0.366	0.434	0.412	0.355
HCC-827	0.421	0.536	0.505	0.466	0.502	0.587	0.73	0.651	0.362	0.695	0.201	0.257	0.347	0.176	0.178	0.317	0.283	0.355	0.3
NCI-H1623						0.51	0.622	0.607	0.538	0.607									
NCI-H441	0.188	0.258	0.242	0.23	0.186	0.347	0.351	0.348	0.332	0.306	1.39	1.09	1.13	0.85	0.718	0.206	0.257	0.282	0.217
NCI-H1703											0.122	0.133	0.138	0.122	0.0985				
NCI-H1563						0.575	0.52	0.5	0.648	0.492									
HCC-78	0.502	0.46	0.41	0.486	0.495						0.355	0.771	0.65	0.738	0.791	0.454	0.366	0.473	0.457
COR-L23	0.389	0.357	0.338	0.277	0.288	0.792	0.729	0.687	0.698	0.504						0.27	0.24	0.241	0.247
SW 1573	0.427	0.394	0.369	0.308	0.402	0.219	0.215	0.456	0.411	0.277						0.314	0.372	0.255	0.262
NCI-H1648	0.251	0.264	0.263	0.313	0.248						0.678	0.735	0.768	0.538	0.509	0.258	0.278	0.263	0.244
NCI-H2009	0.252	0.212	0.254	0.274	0.181	1.12	1	1.05	0.97	1.04						0.175	0.204	0.156	0.158
COR-L 105	0.402	0.43	0.398	0.357	0.392	0.693	0.726	0.835	0.733	0.693						0.403	0.477	0.405	0.495
NCI-H1650	0.352	0.39	0.376	0.417	0.504	0.185	0.179	0.205	0.19	0.174						0.253	0.334	0.3	0.292
HCC-366	0.389	0.43	0.372	0.391	0.369						0.291	0.34	0.428	0.361	0.485	0.063	0.124	0.132	0.112
NCI-H2023	0.333	0.331	0.368	0.344	0.424	0.912	0.628	0.796	0.571	0.614						0.28	0.277	0.233	0.199
SK-MES-1	0.305	0.3	0.353	0.355	0.302	0.813	0.813	0.898	0.789	0.74						0.28	0.355	0.341	0.352
NCI-H596						1.07	1.26	1.04	0.893	0.938	1.04	1.21	1.13	1.17	1.2				
SK-LU-1	0.429	0.401	0.467	0.341	0.4	0.213	0.211	0.217	0.2	0.188						0.428	0.334	0.33	0.47
NCI-H520	0.245	0.236	0.239	0.303	0.315	0.172	0.252	0.209	0.291	0.225						0.247	0.258	0.263	0.251
NCI-H661	0.428	0.432	0.491	0.507	0.493	0.958	0.957	0.977	0.909	0.885						0.354	0.38	0.355	0.302
NCI-H2228	1	0.865	0.821	0.473	0.426	0.149	0.132	0.198	0.188	0.12						0.675	0.394	0.681	0.538
